The record followed here is ChEMBL document CHEMBL1130691, “Acceptor substrate-based selective inhibition of galactosyltransferases” (Bioorg Med Chem Lett, 1998).

By Ki is commonly meant a dissociation constant, usually derived from enzyme kinetics or from competition with a known ligand.

Assay [1] has as its target T1, N-acetyllactosaminide alpha-1,3-galactosyltransferase (Sus scrofa, UniProt P50127). The assay is described as follows: Compound was tested for the inhibition porcine alpha -1,3 -galactosyl transferase (alpha-1,3-GalT); No inhibition.
Assay [2] has as its target T2, Beta-1,4-galactosyltransferase 1 (Bos taurus, UniProt P08037).
T2 sequence (P08037 whole entry): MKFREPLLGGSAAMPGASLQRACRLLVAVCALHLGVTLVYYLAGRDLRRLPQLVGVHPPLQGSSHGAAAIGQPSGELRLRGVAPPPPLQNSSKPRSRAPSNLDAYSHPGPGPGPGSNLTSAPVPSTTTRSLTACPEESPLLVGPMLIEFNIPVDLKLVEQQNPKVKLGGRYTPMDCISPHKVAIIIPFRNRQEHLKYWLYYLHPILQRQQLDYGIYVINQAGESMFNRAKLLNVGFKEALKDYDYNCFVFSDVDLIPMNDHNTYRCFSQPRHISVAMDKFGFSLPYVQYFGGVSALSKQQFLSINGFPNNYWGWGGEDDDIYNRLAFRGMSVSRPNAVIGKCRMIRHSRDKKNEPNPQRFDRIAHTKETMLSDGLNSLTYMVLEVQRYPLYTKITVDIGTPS
In words: Compound was tested for the inhibition recombinant bovine beta -1,4 -galactosyl transferase (beta-1,4-GalT).

The target of assay [3] is T2, Beta-1,4-galactosyltransferase 1. In words: Compound was tested for the inhibition recombinant bovine beta -1,4 -galactosyl transferase (beta-1,4-GalT); No inhibition.
For assay [4], the target named is T1, N-acetyllactosaminide alpha-1,3-galactosyltransferase. The assay is described as follows: Compound was tested for the inhibition porcine alpha -1,3 -galactosyl transferase (alpha-1,3-GalT).
The target is the same in assay [5]. The assay is described as follows: Compound was tested for the inhibition porcine alpha -1,3 -galactosyl transferase (alpha-1,3-GalT) at 0.2 mM concentration.

T1 sequence (P50127 whole entry): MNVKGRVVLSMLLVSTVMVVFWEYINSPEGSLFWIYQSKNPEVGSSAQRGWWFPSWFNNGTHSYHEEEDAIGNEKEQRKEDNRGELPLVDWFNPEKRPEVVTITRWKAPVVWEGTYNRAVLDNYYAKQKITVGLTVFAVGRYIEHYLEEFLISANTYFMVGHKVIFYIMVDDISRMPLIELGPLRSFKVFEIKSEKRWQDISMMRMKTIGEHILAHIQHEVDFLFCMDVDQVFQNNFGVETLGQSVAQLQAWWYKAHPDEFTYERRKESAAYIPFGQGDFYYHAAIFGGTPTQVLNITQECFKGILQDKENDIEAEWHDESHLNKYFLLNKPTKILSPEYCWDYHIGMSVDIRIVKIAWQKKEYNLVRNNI

`CC(=O)NC1C(Oc2ccc3cc(Br)ccc3c2)OC(CO)C(O)C1O` (stereo unspecified): the Ki result in assay [1] is “Not Active”; in assay [2] it was 7.6 µM.
The matching figures for `CC(=O)NC1C(Oc2ccc3ccccc3c2)OC(CO)C(O)C1O` (stereo unspecified): “Not Active” and 9.5 µM.
In the case of `CC(=O)NC1C(Oc2ccccc2)OC(CO)C(O)C1O` (stereo unspecified), the Ki entry in assay [3] is “Not Active”.
Turning to `COC(=O)CCCCCOC1OC(CO)C(O)C(O)C1NC(C)=O` (stereo unspecified), the Ki result in assay [3] is reported as “Not Active”.
For the compound `CC(=O)NC1C(Oc2cccc3ccccc23)OC(CO)C(O)C1O` (stereo unspecified), the Ki result in assay [1] was “Not Active”; in assay [2], 22 µM.
Take `CC(=O)NC1C(OCc2ccccc2)OC(CO)C(N)C1O` (stereo unspecified): the inhibition constant (Ki) in assay [2] stood at 850 µM.
On to `OC[C@@H]1O[C@@H](Oc2ccc3cc(Br)ccc3c2)[C@@H](O)[C@@H](O)[C@H]1O`, for which, in assay [3], the Ki entry is “Not Active”.
In the case of `CO[C@@H]1O[C@@H](CO)[C@H](O)[C@H](O[C@@H]2O[C@@H](CS)[C@@H](O)[C@H](O)[C@@H]2NC(C)=O)[C@@H]1O`, the Ki in assay [2] was 1000 µM.
`CC(=O)N[C@@H]1[C@H](Oc2ccc3cc(Br)ccc3c2)O[C@@H](CO)[C@@H](O[C@@H]2O[C@@H](CO)[C@H](O)[C@H](O)[C@@H]2O)[C@@H]1O`: the Ki entry in assay [3] is “Not Active”; in assay [4], 9.2 µM.
`COc1ccc2cc(OC3OC(CO)C(O)C(O)C3NC(C)=O)ccc2c1` (stereo unspecified): the results for the Ki result in assay [1] and in assay [2] were “Not Active” and 3.5 µM, respectively.
`COC1OC(CO)C(OC2OC(CO)C(O)C(N)C2O)C(O)C1NC(C)=O` (stereo unspecified) returned an inhibition constant (Ki) in assay [5] of 104 µM.
